The test system of this assay is Colo205 human colon carcinoma cell line. Put plainly: In vitro tumor cell proliferation assay (MTS, CellTiter 96 Aqueous One Solution). It is filed as cell-based. The following applies: COLO 205, Colo205 cells, 72 hours compound exposure, MTS absorbance at 490 nm, read-out: IC50 (concentration of test compound required to inhibit proliferation of 50% of the cells). The method, then:
In Vitro Tumor Cell Proliferation Assay
The adherent H460 human non-small cell lung carcinoma and Colo205 human colon carcinoma cell lines were purchased from the American Type and Culture Collection (ATCC, Manassas, Va.) and maintained in RPMI-1640 growth media supplemented with 10% heat inactivated fetal bovine serum (Gibco, Invitrogen Corp. Grand Island, N.Y.). At 37° C. in a humidified atmosphere of 5% CO2.
The CellTiter 960 Aqueous One Solution kit, MTS, (Promega, Madison, Wis.) was used to measure proliferation of tumor cell lines in vitro. This method monitors the bioreduction of a tetrazolium dye as a measure of cell viability. On Day 0, exponentially growing cells were trypsinized, resuspended in RPMI-1640 growth media supplemented with 10% FCS, 100 u/ml of penicillin G and 100 ug/ml of streptomycin sulfate, and seeded at 2000 cells per well into 96 well microtiter plates. Cells were incubated overnight in a humidified atmosphere of 5% CO2 at 37° C. On Day 1, serial dilutions of compounds were prepared at 2× the finial assay concentration. One hundred microliters of 2× solution was added to test wells in duplicate and control wells received no test compound. The final drug concentration ranged from 0 to 10-20 um in a 5 point dose-response curve. Cells were incubated in the presence of test compounds in a humidified atmosphere of 5% CO2 at 37° C. for 72 hours. After 72 hours of compound exposure, 40 ul of Promega CellTiter 960 Aqueous One Solution was added to each well and absorbance at 490 n-M was measured using a multi-well plate reader. Percent inhibition of proliferation was calculated using the following formula: 100×(1−Absorbancetreated−Background/(Absorbancecontrol−Background)
Absorbancetreated=absorbance at 490 nm in test wells, cells with test compound
Absorbancecontrol=absorbance at 490 nm in control wells, cells with no test compound
Background=absorbance 490 nm in wells containing media and no cells
The concentration of test compound required to inhibit proliferation of 50% of the cells (IC50) was determined by linear regression analysis.
Representative compounds of the invention were tested in the above-described Colo205 human colon carcinoma cell line in vitro assay and found to inhibit human colon carcinoma cell proliferation, and are summarized as follows: […]
For the compound `COC[C@@H]1CCCN1Cc1ccc(-n2cc(C(=O)O)c(=O)c3cc(F)c(N4CCN(c5ncccn5)CC4)c(Cl)c32)cc1` [Example 26, 8-chloro-6-fluoro-1-(4-{[(2S)-2-(methoxy-methyl)pyrrolidin-1-yl]methyl}phenyl)-4-oxo-7-(4-pyrimidin-2-ylpiperazin-1-yl)-1,4-dihydroquinoline-3-carboxylic acid], the IC50 is below 500 nM.
Next, `CCN(CC)Cc1ccc(-n2cc(C(=O)O)c(=O)c3cc(F)c(N4CCN(c5ccccc5F)CC4)c(OC(F)(F)F)c32)cc1` [Example 135, 1-{4-[(diethylamino)methyl]phenyl}-6-fluoro-7-[4-(2-fluorophenyl)piperazin-1-yl]-4-oxo-8-(trifluoromethoxy)-1,4-dihydroquinoline-3-carboxylic acid]: below 500 nM; `O=C(O)c1cn(-c2ccc(CN3CC[C@H](O)C3)cc2)c2c(Cl)c(N3CCN(c4ncccn4)CC3)c(F)cc2c1=O` [Example 27, 8-chloro-6-fluoro-1-(4-{[(3S)-3-hydroxy-pyrrolidin-1-yl]methyl}phenyl)-4-oxo-7-(4-pyrimidin-2-ylpiperazin-1-yl)-1,4-dihydroquinoline-3-carboxylic acid]: below 500 nM; `CC1CCCN1Cc1ccc(-n2cc(C(=O)O)c(=O)c3cc(F)c(N4CCN(c5ccccn5)CC4)c(Cl)c32)cc1` (stereo not shown) [Example 17, 8-chloro-6-fluoro-1-{4-[(2-methylpyrrolidin-1-yl)methyl]phenyl}-4-oxo-7-(4-pyridin-2-ylpiperazin-1-yl)-1,4-dihydroquinoline-3-carboxylic acid]: below 500 nM.
Consider `O=C(O)c1cn(-c2cccc(CN3CCCCC3)c2)c2c(OC(F)(F)F)c(N3CCN(c4ccc(F)cc4F)CC3)c(F)cc2c1=O` [Example 142, 7-[4-(2,4-difluorophenyl)piperazin-1-yl]-6-fluoro-4-oxo-1-[3-(piperidin-1-ylmethyl)phenyl]-8-(trifluoromethoxy)-1,4-dihydroquinoline-3-carboxylic acid], for which the IC50 is 2000 to 20000 nM.
Next, `CN(C)Cc1ccc(-n2cc(C(=O)O)c(=O)c3cc(F)c(N4CCN(c5ccc(F)cc5)CC4)c(OC(F)(F)Cl)c32)cc1` [Example 155, 8-[chloro(difluoro)methoxy]-1-{4-[(dimethylamino)methyl]phenyl}-6-fluoro-7-[4-(4-fluorophenyl)piperazin-1-yl]-4-oxo-1,4-dihydroquinoline-3-carboxylic acid]: below 500 nM.
Next, `O=C(O)c1cn(-c2cccc(CN3CCCCC3)c2)c2c(Cl)c(N3CCN(c4ccc(F)cc4)CC3)c(F)cc2c1=O` [Example 67, 8-chloro-6-fluoro-7-[4-(4-fluorophenyl)-piperazin-1-yl]-4-oxo-1-[3-(piperidin-1-ylmethyl)phenyl]-1,4-dihydroquinoline-3-carboxylic acid]: 2000 to 20000 nM; `O=C(O)c1cn(-c2ccc(CN3CCCC3)c(F)c2)c2c(Cl)c(N3CCN(c4ccc(Cl)cc4)CC3)c(F)cc2c1=O` [Example 187, 8-chloro-7-[4-(4-chlorophenyl)-piperazine-1-yl]-6-fluoro-1-(3-fluoro-4-pyrrolidin-1-ylmethyl-phenyl)-4-oxo-1,4-dihydroquinoline-3-carboxylic acid]: below 500 nM; `O=C(O)c1cn(-c2ccc(CN3CCCC3)cc2)c2c(Cl)c(N3CCN(c4ccc(F)cc4)CC3)c(F)cc2c1=O` [Example 2, 8-chloro-6-fluoro-7-[4-(4-fluorophenyl)-piperazin-1-yl]-4-oxo-1-[4-(pyrrolidin-1-ylmethyl)phenyl]-1,4-dihydroquinoline-3-carboxylic acid]: below 500 nM.
Turning to `CN(Cc1ccc(-n2cc(C(=O)O)c(=O)c3cc(F)c(N4CCN(c5ncccn5)CC4)c(Cl)c32)cc1)C1CCCCC1` [Example 62, 8-chloro-1-(4-{[cyclohexyl(methyl)amino]-methyl}phenyl)-6-fluoro-4-oxo-7-(4-pyrimidin-2-ylpiperazin-1-yl)-1,4-dihydroquinoline-3-carboxylic acid], the IC50 was below 500 nM.

The values above are taken from patent US20070213339A1 (Bayer Pharmaceuticals Corporation, priority 2004, published 2007).
